Series [1] addresses T1, human kinesin Eg5 motor protein (Homo sapiens, UniProt P52732).
T1 construct: endogenous in cells; host or cells: HeLa cells
T1 sequence (P52732 1-1056): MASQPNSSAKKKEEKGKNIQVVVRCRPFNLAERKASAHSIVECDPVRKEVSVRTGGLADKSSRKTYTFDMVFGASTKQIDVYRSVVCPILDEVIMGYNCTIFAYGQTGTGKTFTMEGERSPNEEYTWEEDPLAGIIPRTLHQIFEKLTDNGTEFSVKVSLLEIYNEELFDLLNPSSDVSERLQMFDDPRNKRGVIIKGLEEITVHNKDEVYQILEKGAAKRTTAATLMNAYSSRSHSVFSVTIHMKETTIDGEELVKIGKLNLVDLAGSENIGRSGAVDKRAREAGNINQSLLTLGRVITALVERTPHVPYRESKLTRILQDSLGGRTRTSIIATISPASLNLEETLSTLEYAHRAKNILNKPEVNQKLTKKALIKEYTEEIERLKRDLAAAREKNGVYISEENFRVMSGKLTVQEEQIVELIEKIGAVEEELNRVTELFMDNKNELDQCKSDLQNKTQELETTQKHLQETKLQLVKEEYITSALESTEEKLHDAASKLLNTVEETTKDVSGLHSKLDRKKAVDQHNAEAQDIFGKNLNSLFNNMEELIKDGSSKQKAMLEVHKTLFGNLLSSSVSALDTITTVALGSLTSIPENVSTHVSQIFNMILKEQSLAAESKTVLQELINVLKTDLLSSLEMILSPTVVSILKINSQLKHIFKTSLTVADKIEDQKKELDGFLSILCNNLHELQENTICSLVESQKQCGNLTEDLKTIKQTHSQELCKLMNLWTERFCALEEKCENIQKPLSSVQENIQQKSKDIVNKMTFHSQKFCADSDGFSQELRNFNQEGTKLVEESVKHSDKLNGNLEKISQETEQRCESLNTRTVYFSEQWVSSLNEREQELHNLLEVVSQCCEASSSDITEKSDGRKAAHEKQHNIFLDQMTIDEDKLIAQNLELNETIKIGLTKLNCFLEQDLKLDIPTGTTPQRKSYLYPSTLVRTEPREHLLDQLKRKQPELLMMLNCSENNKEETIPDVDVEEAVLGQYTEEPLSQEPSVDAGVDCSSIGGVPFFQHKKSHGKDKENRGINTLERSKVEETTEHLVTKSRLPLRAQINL
Put plainly: Monopolar spindle formation in HeLa cells treated with MSTLC probes (fixed, tubulin/DNA staining). Conditions: read-out: EC50, monopolar spindles / block of bipolar spindle. Type of series: cell-based. As to the method:
The inhibitory activity of human kinesin Eg5 motor protein was tested using probes 3.3, 3.5 and 413. HeLa cells were treated with 10 μM of each probe, as well as the unconjugated inhibitor Methoxy-S-Trityl-L-cysteine. Then cells were incubated with anti-α tubulin 1:1000 primary antibody, AlexaFluor-546 conjugated rabbit anti-mouse secondary antibody and Hoechst 33342 for staining microtubules and DNA respectively. Cells were subsequently washed and mounted onto glass sides with 90% glycerol and imaged using a Zeiss Axiovert 200M inverted microscope outfitted with epifluorescence optics, and a Zeiss Apotome structured illumination module.

The subject of series [2] is HeLa cells. Put plainly: Live imaging of HeLa cells treated with MSTLC probes. Type of series: cell-based. Conditions: mitotic HeLa cells.
In series [3] the test system is estrogen receptor (ER)-dependent promoter. The series can be described thus: Invitrogen SelectScreen Profiling Service, ER-mediated transcription. Type of series: cell-based. As to conditions: read-out: ED50, ER-mediated transcription.
Series [4] concerns phospho-ERK. The series can be described thus: Immunoblot of phospho-ERK accumulation in MCF7 cells. The format is cell-based. Conditions: 10 nM, about 15 minutes. As to the method:
FIG. 9 illustrates that E2-HPY(530) treatment leads to the accumulation of phospho-ERK in MCF7 breast cancer cells. […] After about a 15 minute treatment, protein lysates were isolated for immunoblot analysis. The upper panel of […] was probed with pERK1/2 mAb (1:600, Santa Cruz Biotechnology) overnight at about 4° C. Lower panel was obtained after stripping the membrane and probing (1:3000) with Actin mAb overnight at about 4° C. Primary antibodies were visualized with horseradish peroxidase conjugated secondary antibodies.
FIG. 9 illustrates that E2-HPY(530) treatment leads to the accumulation of phospho-ERK in MCF7 breast cancer cells. […] Primary antibody raised against P-ERK was used to visualize p-ERK levels. Actin expression determined by Actin specific mAb was used as a loading control.
Background: In western blotting, separated proteins are transferred to a membrane and probed.

A short description of series [5]: Octanol/water partition coefficient (Log Po/w). The format is physicochemical.

Turning to `COc1ccc(C(SC[C@H](N)C(=O)NCCC#CC2=CN3C(=N[N+](=C(C)C)[B-]3(F)F)C=C2)(c2ccccc2)c2ccccc2)cc1` [3.3], in series [1], the EC50 was ~1130 nM. In series [2], the spindle phenotype result is “formed monopolar spindles”.
The like results for `COc1ccc(C(SC[C@H](N)C(=O)NCCC#CC2=CN3C(=N[N+](=C(C)C)[B-]3(OC)OC)C=C2)(c2ccccc2)c2ccccc2)cc1` [3.5] were, in that order, ~1030 nM and “formed monopolar spindles”.
For `C[C@]12CC[C@@H]3c4ccc(O)cc4CC[C@H]3[C@@H]1CC[C@@H]2O` [E2, 17-β-estradiol], the EC50 in series [3] worked out at 0.11 nM. For the same compound, the “accumulation of phospho-ERK” value in series [4] is reported as “resulted in the accumulation of phospho-ERK”.
For the compound `F[B-]1(F)N2C=C(I)C=CC2=N[N+]1=C1c2ccccc2-c2ccccc21` [HPY(530)-Iodide, 2-(9H-fluoren-9-ylidene)-3,3-difluoro-6-iodo-2,3-dihydro-[1,2,4,3]triazaborolo[4,5-a]pyridin-2-ium-3-uide], the lipophilicity (logP) in series [5] turned out to be 0.79.

For orientation: logP means the decadic logarithm of the partition coefficient of the neutral form, usually between octanol and water. A low value points to lower lipophilicity.

Source of the values: patent US8715529B1, “Synthesis and applications of triazaborolopyridinium compounds and substituted triazaborolopyridinium compounds and methods of use” (Arrowhead Center, Inc., priority 2012, dated 2014).
